Activity calls are given as the source filed them.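 The calls were made as follows: active = peak inhibition of the hERG potassium channel flux above 30% at some tested dose, plus a fitted dose response curve; inactive = no inhibition at any dose, or no curve.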
Each compound was assayed against Voltage-gated inwardly rectifying potassium channel KCNH2 (Homo sapiens) (UniProt Q12809) (assay: hERG channel inhibition, SAR follow-up, selectivity assay for KCNK9 inhibitor project, cell-based, FluxOR thallium flux, CRC set 3 (AID 588741)). Conditions: hERG-expressing cells, FluxOR thallium flux fluorescence.
Sequence of Voltage-gated inwardly rectifying potassium channel KCNH2 (Homo sapiens) (Q12809 whole entry, looked up): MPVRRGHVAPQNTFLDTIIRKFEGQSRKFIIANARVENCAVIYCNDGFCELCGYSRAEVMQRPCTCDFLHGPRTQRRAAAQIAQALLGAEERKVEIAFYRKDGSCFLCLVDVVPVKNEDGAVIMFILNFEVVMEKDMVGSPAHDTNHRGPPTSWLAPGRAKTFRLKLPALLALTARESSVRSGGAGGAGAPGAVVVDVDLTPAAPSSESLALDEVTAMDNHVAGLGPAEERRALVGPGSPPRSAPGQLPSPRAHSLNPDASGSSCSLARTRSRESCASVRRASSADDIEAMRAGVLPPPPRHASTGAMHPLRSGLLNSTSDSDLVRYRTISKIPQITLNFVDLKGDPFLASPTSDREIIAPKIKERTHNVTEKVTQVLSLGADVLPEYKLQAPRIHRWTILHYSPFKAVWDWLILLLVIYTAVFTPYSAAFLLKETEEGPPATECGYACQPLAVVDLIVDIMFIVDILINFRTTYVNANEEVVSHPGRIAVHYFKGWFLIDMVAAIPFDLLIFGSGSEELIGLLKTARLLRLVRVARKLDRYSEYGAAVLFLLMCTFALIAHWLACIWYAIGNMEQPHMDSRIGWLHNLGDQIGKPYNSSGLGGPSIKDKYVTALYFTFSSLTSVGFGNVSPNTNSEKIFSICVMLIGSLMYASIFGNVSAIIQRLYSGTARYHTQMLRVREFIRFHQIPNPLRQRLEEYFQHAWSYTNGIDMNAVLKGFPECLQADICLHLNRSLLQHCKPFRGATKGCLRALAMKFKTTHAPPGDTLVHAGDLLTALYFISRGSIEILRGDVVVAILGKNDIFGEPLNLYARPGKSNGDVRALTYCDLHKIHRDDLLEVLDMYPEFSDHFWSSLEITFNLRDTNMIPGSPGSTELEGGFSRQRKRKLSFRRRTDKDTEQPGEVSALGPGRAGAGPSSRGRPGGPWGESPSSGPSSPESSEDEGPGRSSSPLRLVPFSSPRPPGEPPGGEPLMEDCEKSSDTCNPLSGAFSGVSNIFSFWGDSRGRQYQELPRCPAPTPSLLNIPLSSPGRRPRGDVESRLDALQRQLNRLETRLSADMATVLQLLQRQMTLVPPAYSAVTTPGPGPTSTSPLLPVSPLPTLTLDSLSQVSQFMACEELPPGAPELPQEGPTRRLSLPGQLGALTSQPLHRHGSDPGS

Compound	IC50 [µM]
COc1ccc(C(=O)CSc2nnc(-c3ccco3)n2C(C)C2CC3CCC2C3)cc1OC (stereo not drawn)	13.6
CC(C1CC2CCC1C2)n1c(SCC(=O)c2ccc3c(c2)OCO3)nnc1-c1ccco1 (stereo not drawn)	3.45
COc1cccc(C(=O)CSc2nnc(-c3ccco3)n2C(C)C2CC3CCC2C3)c1 (stereo not drawn)	17.2
COc1ccc(CCSc2nnc(-c3ccco3)n2C(C)C2CC3CCC2C3)cc1OC (stereo not drawn)	16.7
COc1ccc(C(=O)CSc2nnc(-c3ccco3)n2C(C)C2CC3CCC2C3)cc1 (stereo not drawn)	20.1
CC(C1CC2CCC1C2)n1c(SCC(=O)c2ccccc2)nnc1-c1ccco1 (stereo not drawn)	23.9
CC(C1CC2CCC1C2)n1c(SCc2ccccc2)nnc1-c1ccco1 (stereo not drawn)	9.77

Same assay, conditions: hERG-expressing cells, FluxOR thallium flux fluorescence; at 30 µM (top of the series)

Compound	flux ratio, lower = inhibition
COc1ccccc1C(=O)Nc1cccc(NC(=O)c2cccc3ccccc23)c1	inactive
C[C@@H](C1CCCCC1)n1c(-c2ccco2)n[nH]c1=S	inactive
CC(C)c1ccccc1C(=O)Nc1cccc(NC(=O)c2ccccc2OC(F)(F)F)c1	inactive
CC(C1CC2CCC1C2)n1cnnc1-c1ccco1 (stereo not drawn)	inactive
CC(C1CC2CCC1C2)N(C)C(=O)c1ccco1 (stereo not drawn)	inactive
CC(C)Oc1ccccc1C(=O)Nc1cccc(NC(=O)c2ccccc2OC(F)(F)F)c1	inactive
CSc1nnc(-c2ccco2)n1C(C)C1CC2CCC1C2 (stereo not drawn)	inactive
CC(C1CC2CCC1C2)n1c(SC(F)F)nnc1-c1ccco1 (stereo not drawn)	inactive
CC(C1CC2CCC1C2)n1c(-c2cccn2C)n[nH]c1=S (stereo not drawn)	inactive
COc1cc(OC)cc(-c2n[nH]c(=S)n2C(C)C2CC3CCC2C3)c1 (stereo not drawn)	inactive
CC(C1CC2CCC1C2)n1c(-c2ccccc2F)n[nH]c1=S (stereo not drawn)	inactive
CC(C1CCCCC1)n1c(-c2ccco2)n[nH]c1=S (stereo not drawn)	inactive
CC(CCC1CCCC1)n1c(-c2ccco2)n[nH]c1=S (stereo not drawn)	inactive
S=c1[nH]nc(-c2ccco2)n1CC1CC2CCC1C2 (stereo not drawn)	inactive
COc1cccc(-c2n[nH]c(=S)n2C(C)C2CC3CCC2C3)c1OC (stereo not drawn)	inactive
CC(NC(=O)c1ccco1)C1CC2CCC1C2 (stereo not drawn)	inactive
CC(C1CC2CCC1C2)n1c(-c2ccccn2)n[nH]c1=S (stereo not drawn)	inactive
CC(CC1CC2CCC1C2)n1c(-c2ccco2)n[nH]c1=S (stereo not drawn)	inactive

Compound	flux ratio, lower = inhibition
COc1cccc(Cc2n[nH]c(=S)n2C(C)C2CC3CCC2C3)c1 (stereo not drawn)	inactive
CC(C1CC2CCC1C2)n1c(-c2ccco2)nnc1C(F)(F)F (stereo not drawn)	inactive
CC(C1CC2CCC1C2)n1c(-c2cccc(N(C)C)c2)n[nH]c1=S (stereo not drawn)	inactive
CC(C1CC2CCC1C2)n1c(-c2ccco2)n[nH]c1=O (stereo not drawn)	inactive
CC(C1CC2CCC1C2)n1c(-c2ccc(N(C)C)cc2)n[nH]c1=S (stereo not drawn)	inactive
CC(c1cccc2ccccc12)n1c(-c2ccco2)n[nH]c1=S (stereo not drawn)	inactive
COc1ccccc1C(=O)Nc1cc(NC(=O)c2ccccc2C(C)C)ccc1F	inactive
CC(C1CC2CCC1C2)n1c(-c2cccc(F)c2)n[nH]c1=S (stereo not drawn)	inactive
CC(C1CC2CCC1C2)n1c(-c2cccnc2)n[nH]c1=S (stereo not drawn)	inactive
S=c1[nH]nc(-c2ccco2)n1C1CC2CCC1C2 (stereo not drawn)	inactive
CC(C1CC2CCC1C2)n1c(-c2cccs2)n[nH]c1=S (stereo not drawn)	inactive
C[C@H](C1CCCCC1)n1c(-c2ccco2)n[nH]c1=S	inactive
CC(C1C2CCC1CC2)n1c(-c2ccco2)n[nH]c1=S (stereo not drawn)	inactive
CC(C1CC2CCC1C2)n1c(SCC#N)nnc1-c1cccs1 (stereo not drawn)	inactive
CC(C1CC2CCC1C2)n1c(-c2ccncc2)n[nH]c1=S (stereo not drawn)	inactive
CC(C1CC2CCC1C2)n1c(-c2ccco2)n[nH]c1=S (stereo not drawn)	inactive
COc1cccc(-c2nnc(S(C)(=O)=O)n2C(C)C2CC3CCC2C3)c1 (stereo not drawn)	inactive
CC(C1CC2CCC1C2)n1c(SCC(=O)c2ccc(Cl)c(Cl)c2)nnc1-c1ccco1 (stereo not drawn)	inactive
